Earlier results in patent publication US20190320896A1, “STROKE, CONCUSSION, AND COGNITIVE DYSFUNCTION DIAGNOSTIC METHOD AND DEVICE” (priority 2018, published 2019).

Legend:
[1] = human, in vivo
[2] = after administration; metabolized by the kidneys
[3] = upon entering the circulation after bolus injection into a peripheral vein

O=C([O-])CN(CCN(CC(=O)[O-])CC(=O)[O-])CCN(CC(=O)[O-])CC(=O)[O-].[Gd+3] [gadolinium, Gadolinium-DTPA]
GLOS also affecting the aqueous chamber, cases [1]: 6 % of cases | GLOS in both chambers, patients [1]: 27 % of patients | GLOS in the aqueous chamber alone, patients [1]: 67 % of patients | GLOS in the vitreous chamber alone, patients [1]: 6 % of patients | GLOS present, always involving the vitreous chamber, patients [1]: 75 % patients

O=C1OC2(c3ccc(O)cc3Oc3cc(O)ccc32)c2ccccc21 [sodium fluorescein]
time to elimination through the urine [2]: 24 to 36 h | dye molecules bound to plasma proteins [3]: approximately 80%
